Broadly, the viability is a read-out of living cells in per cent, often relative to untreated cells. For orientation: EC50 means the concentration at which the effect is half-maximal.

The values below come from patent publication US10577362B2, “Substituted 2, 4-diamino-quinoline derivatives for use in the treatment of proliferative diseases” (GENOSCIENCE PHARMA, priority 2016, dated 2020).

Common to all, as to format: cell-based, human
For test [1], the system named is MOLM-14 (acute myeloid leukemia) cell line. The experiment in a line: CellTiter-Glo luminescent cell viability assay, MOLM-14. Particulars: Homo sapiens; for viability at 4 µM: MOLM-14, compound at 4 μM; for viability at 4 µM / viability at 10 µM: 72 h; for viability at 10 µM: MOLM-14, compound at 10 μM; for EC50: MOLM-14 cell line, 72 h incubation, CellTiter-Glo, read-out: EC50, growth inhibition of MOLM-14. The procedure:
(§1) All cell lines were maintained in medium containing 1% penicillin-streptomycin (Dutscher, P06-07100) and 10% Fetal Bovine Serum (Hyclone Dutscher, RZK35922) cultured at 37° C. with 5% CO2. HepG2 (hepatocellular carcinoma), cell line was cultured in Dulbecco's modified Eagle's medium low glucose (Gibco, 21885025), Huh7 (hepatocellular carcinoma), HCT-116 (colorectal carcinoma), PANC-1 (prancreatic carcinoma) and A375 (malignant melanoma) cell lines were cultured in Dulbecco's modified Eagle's medium (Dutscher, L0103). MOLM-14 (acute myeloid leukemia) cell line was maintained in MEM alpha medium (Gibco, 22561-021). 786-0 (renal adenocarcinoma) cell lines were maintained in RPMI 1640 medium (Dutscher, L0498).
(§2) Cell viability was measured using the CellTiter-Glo® luminescent cell viability assay as described by the manufacturer (Promega, Ref G7571) using an Infinite F200Pro luminometer (Tecan). Briefly, for adherent cells, cells were plated onto 96-well plates (white with clear bottom) in 90 μL of media per well and were allowed to grow overnight before the assay. For cells growing in suspension, cells were plated onto 96-well plates 1 h before the assay.
(§3) Compounds were resuspended in H2O or DMSO and added at different concentrations to each well, and cell cultures were incubated for 72 h. Each diluent (H2O or DMSO) were used as a control, and all compounds were tested in a constant percentage of H2O or DMSO. On the day of the reading, plates are equilibrated 30 min at room temperature before the addition of 100 μL of CellTiter-Glo® and luminescence was measured using an Infinite F200Pro (Tecan). % cell viability were expressed as a percentage of the signal obtained for cell cultures treated with diluent. EC50 values were determined as the dose of compound required to reduce luminescent values to 50% of the signal obtained for cell cultures treated with diluent. The experimental data were analyzed using a computer program, Graphpad Prism v5 (GraphPad Software, Inc. La Jolla, Calif.). All points were at least done in duplicate.
On the technique in general: ATP-based viability assays read luminescence as a measure of living cells.

Test [2] concerns A375 (malignant melanoma) cell line. The experiment in a line: CellTiter-Glo luminescent cell viability assay, A375. Particulars: Homo sapiens, A-375; for viability at 4 µM: A375, compound at 4 μM; for viability at 4 µM / viability at 10 µM: 72 h; for viability at 10 µM: A375, compound at 10 μM; for EC50: A375 cell line, 72 h incubation, CellTiter-Glo, read-out: EC50, growth inhibition of A375. Here is the method:
as §1, §2, §3

The subject of test [3] is HCT-116 (colorectal carcinoma) cell line. The experiment in a line: CellTiter-Glo luminescent cell viability assay, HCT-116. Particulars: Homo sapiens; for viability at 4 µM: HCT-116, compound at 4 μM; for viability at 4 µM / viability at 10 µM: 72 h; for viability at 10 µM: HCT-116, compound at 10 μM. The procedure:
as §1, §2, §3

Test [4] relates to Huh7 (hepatocellular carcinoma) cell line. The experiment in a line: CellTiter-Glo luminescent cell viability assay, Huh7. The following applies: Homo sapiens, Huh-7; for viability at 4 µM: Huh7, compound at 4 μM; for viability at 4 µM / viability at 10 µM: 72 h; for viability at 10 µM: Huh7, compound at 10 μM; for EC50: Huh7 cell line, 72 h incubation, CellTiter-Glo, read-out: EC50, growth inhibition of Huh7. Here is the method: as §1, §2, §3

Test [5] concerns 786-O (renal adenocarcinoma) cell line. The experiment in a line: CellTiter-Glo luminescent cell viability assay, 786-O. Particulars: Homo sapiens, 786-0; for viability at 4 µM / viability at 10 µM: 786-O, 72 h; for viability at 4 µM: compound at 4 μM; for viability at 10 µM: compound at 10 μM; for EC50: 786-O cell line, 72 h incubation, CellTiter-Glo, read-out: EC50, growth inhibition of 786-O. Here is the method:
as §1, §2, §3

In test [6] the test system is HepG2 (hepatocellular carcinoma) cell line. The experiment in a line: CellTiter-Glo luminescent cell viability assay, HepG2. Particulars: Homo sapiens; for viability at 4 µM / viability at 10 µM: HepG2, HepG, 72 h; for viability at 4 µM: compound at 4 μM; for viability at 10 µM: compound at 10 μM; for EC50: HepG2 cell line, 72 h incubation, CellTiter-Glo, read-out: EC50, growth inhibition of HepG2. The procedure: as §1, §2, §3

Structures are written as SMILES. Where a name gives a salt, the structure may show the parent alone.

As to `N#Cc1c(NCc2ccc(Cl)cc2)nc2ccccc2c1N1CCC(Oc2ccccc2)C1` (stereo not shown) [Compound 3330CN, 2-(4-chlorobenzylamino)-3-cyano-4-(3-phenoxypyrrolidin-1-yl)quinoline], the viability at 4 µM in test [1] was 102%; in test [2] it was 92.9%; in test [3], 76.8%; in test [4], 70.6%; in test [5] it was 30.4%; in test [6], 99.4%. Further, the viability at 10 µM was 93.6% in test [1]; 82.4% in test [2]; 49.7% in test [3]; 33.7% in test [4]; 19% in test [5]; 80.4% in test [6].
As for `N#Cc1c(NCc2ccc(Cl)cc2)nc2ccccc2c1N1CCCC(Oc2ccc(F)cc2)C1` (stereo not shown) [Compound 3238CN, 2-(4-chlorobenzylamino)-3-cyano-4-[3-(4-fluorophenoxy)piperidin-1-yl]quinoline], the viability at 4 µM in test [1] came to 101%; in test [2], 106%; in test [3], 97.8%; in test [4], 97.7%; in test [5], 90.7%; in test [6], 95.9%. Besides, the viability at 10 µM in test [1] is 91.6%; in test [2], 102%; in test [3], 85.1%; in test [4], 93.7%; in test [5], 86.1%; in test [6], 90.8%.
For `Cc1nccnc1OC1CCN(c2c(C#N)c(NCc3ccc(Cl)cc3)nc3ccccc23)CC1` [Compound 2970CN, 2-(4-chlorobenzylamino)-3-cyano-4-{4-[(3-methylpyrazin-2-yl)oxy]piperidin-1-yl}quinoline], the viability at 4 µM in test [1] was found to be 92%; in test [2], 91.9%; in test [3], 70.5%; in test [4], 63.7%; in test [5] it was 89.4%; in test [6], 87.8%. The viability at 10 µM was found to be 61.2% in test [1]; 80.8% in test [2]; 47% in test [3]; 53.4% in test [4]; 79.8% in test [5]; 63.3% in test [6].
In the case of `COc1ccc(OC2CCN(c3c(C#N)c(NCc4ccc(Cl)cc4)nc4ccccc34)C2)cc1` (stereo not shown) [Compound 3334CN, 2-(4-chlorobenzylamino)-3-cyano-4-[3-(4-methoxyphenoxy)pyrrolidin-1-yl]quinoline], the viability at 4 µM in test [1] stood at 105%; in test [2], 93.2%; in test [3], 92.8%; in test [4] it was 89.9%; in test [5] it was 93.6%; in test [6], 97.7%. For the same molecule, the viability at 10 µM in test [1] was 96.5%; in test [2], 90%; in test [3], 88.6%; in test [4] it was 94.4%; in test [5] it was 91.2%; in test [6], 89.1%.
For the molecule `CC(C)CN(Cc1ccc(Cl)cc1)c1cc(N2CCC(NC(C)(C)C)CC2)c2ccccc2n1` [Compound 220, 2-(N-4-chlorobenzyl-N-isobutylamino)-4-[4-(tert-butylamino)-piperidin-1-yl]-quinoline], the viability at 4 µM in test [1] was found to be 78.9%; in test [2] it was 76.3%; in test [3] it was 60.9%; in test [4], 81.5%; in test [5], 74.6%; in test [6] it was 79.6%. Also, the viability at 10 µM in test [1] was 52.6%; in test [2], 0.3%; in test [3], 0.3%; in test [4], 0.3%; in test [5], 0.4%; in test [6], 31%.
Regarding `N#Cc1c(NCc2ccc(Cl)cc2)nc2ccccc2c1N1CCC(N2CCOCC2)CC1` [Compound 202CN, 2-(4-chlorobenzylamino)-3-cyano-4-[4-(morpholino)piperidin-1-yl]quinoline], the viability at 4 µM was 112% in test [1]; 96.9% in test [2]; 65.8% in test [3]; 83.6% in test [4]; 66.3% in test [5]; 80.2% in test [6]. In addition, the viability at 10 µM was found to be 64.2% in test [1]; 79.2% in test [2]; 33.5% in test [3]; 56.1% in test [4]; 51.9% in test [5]; 51.1% in test [6].
For the molecule `Clc1ccc(CNc2cc(N3CCC(Oc4ccccc4)CC3)c3ccccc3n2)cc1` [Compound 2940, 2-(4-chlorobenzylamino)-4-(4-phenoxypiperidin-1-yl)-quinoline hydrochloride], the EC50 in test [1] lay in the range of 0.5 to 5 µM; in test [2], 5 to 10 µM; in test [3] (HCT-116 cell line, 72 h incubation, CellTiter-Glo, read-out: EC50, growth inhibition of HCT-116) it was 0.5 to 5 µM; in test [4] it was 5 to 10 µM; in test [5] it was 0.5 to 5 µM; in test [6], 0.5 to 5 µM.
Take `Cn1ncnc1Nc1nc2ccccc2c(N2CCC(NC(C)(C)C)CC2)c1C#N` [Compound 3270CN, 2-[(1-methyl-1H-1,2,4-triazol-5-yl)amino]-3-cyano-4-[4-(tert-butylamino)piperidin-1-yl]quinoline]: the viability at 4 µM came to 33.2% in test [1]; 49.2% in test [2]; 47.4% in test [3]; 79.6% in test [4]; 52.6% in test [5]; 37.5% in test [6]. Moreover, the viability at 10 µM in test [1] was determined as 1%; in test [2] it was 31%; in test [3], 6.3%; in test [4], 32.3%; in test [5], 34.7%; in test [6] it was 24.1%. In addition, the EC50 in test [1] was 0.5 to 5 µM; in test [2] it was 0.5 to 5 µM; in test [4], 5 to 10 µM; in test [5] it was 5 to 10 µM; in test [6] it was 0.5 to 5 µM.
Consider `N#Cc1c(NCc2ccc(Cl)cc2)nc2ccccc2c1N1CCCC(Oc2cccc(F)c2)C1` (stereo not shown) [Compound 3240CN, 2-(4-chlorobenzylamino)-3-cyano-4-[3-(3-fluorophenoxy)piperidin-1-yl]quinoline], for which the viability at 4 µM was 106% in test [1]; 95.6% in test [2]; 99.4% in test [3]; 123% in test [4]; 98.2% in test [5]; 97% in test [6]. Moreover, the viability at 10 µM was found to be 113% in test [1]; 94.9% in test [2]; 95.8% in test [3]; 113% in test [4]; 94.5% in test [5].
As for `N#Cc1c(NCc2ccc(Cl)cc2)nc2ccccc2c1N1CCC(Oc2ccc(F)cc2)C1` (stereo not shown) [Compound 3338CN, 2-(4-chlorobenzylamino)-3-cyano-4-[3-(4-fluorophenoxy)pyrrolidin-1-yl]quinoline], the viability at 4 µM was determined as 112% in test [1]; 94.9% in test [2]; 94.3% in test [3]; 96.9% in test [4]; 93.3% in test [5]; 98.8% in test [6]. For the same molecule, the viability at 10 µM was found to be 107% in test [1]; 93.4% in test [2]; 87.6% in test [3]; 101% in test [4]; 59.4% in test [5]; 92.2% in test [6].
